Test results from patent publication US9611278B2 (Merck Sharp & Dohme Corp., priority 2013, dated 2017).

Biological target: T1, sGC α1/β1 heterodimer stably expressed in CHO-K1 cells (CHO-K1/sGC) (Homo sapiens, UniProt Q02108+Q02153)
T1 construct: expressed in transfected cells
T1 sequence (Q02108 1-690): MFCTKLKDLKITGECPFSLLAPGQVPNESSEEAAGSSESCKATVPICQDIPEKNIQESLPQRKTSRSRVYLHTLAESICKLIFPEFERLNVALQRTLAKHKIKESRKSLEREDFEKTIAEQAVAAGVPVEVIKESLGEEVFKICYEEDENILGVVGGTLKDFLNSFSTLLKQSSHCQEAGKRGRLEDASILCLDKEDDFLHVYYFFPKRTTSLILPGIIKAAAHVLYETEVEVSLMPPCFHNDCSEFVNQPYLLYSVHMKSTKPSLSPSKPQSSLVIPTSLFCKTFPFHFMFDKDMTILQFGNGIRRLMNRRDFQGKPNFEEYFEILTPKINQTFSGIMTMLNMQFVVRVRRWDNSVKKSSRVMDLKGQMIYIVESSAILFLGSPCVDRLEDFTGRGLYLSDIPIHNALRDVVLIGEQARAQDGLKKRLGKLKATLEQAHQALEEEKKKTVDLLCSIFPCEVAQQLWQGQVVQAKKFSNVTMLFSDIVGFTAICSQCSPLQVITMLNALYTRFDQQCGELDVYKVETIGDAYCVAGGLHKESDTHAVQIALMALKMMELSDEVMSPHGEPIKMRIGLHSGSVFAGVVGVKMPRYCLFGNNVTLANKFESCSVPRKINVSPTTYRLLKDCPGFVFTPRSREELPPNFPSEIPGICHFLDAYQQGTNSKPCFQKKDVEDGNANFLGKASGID
T1 sequence (Q02153 1-619): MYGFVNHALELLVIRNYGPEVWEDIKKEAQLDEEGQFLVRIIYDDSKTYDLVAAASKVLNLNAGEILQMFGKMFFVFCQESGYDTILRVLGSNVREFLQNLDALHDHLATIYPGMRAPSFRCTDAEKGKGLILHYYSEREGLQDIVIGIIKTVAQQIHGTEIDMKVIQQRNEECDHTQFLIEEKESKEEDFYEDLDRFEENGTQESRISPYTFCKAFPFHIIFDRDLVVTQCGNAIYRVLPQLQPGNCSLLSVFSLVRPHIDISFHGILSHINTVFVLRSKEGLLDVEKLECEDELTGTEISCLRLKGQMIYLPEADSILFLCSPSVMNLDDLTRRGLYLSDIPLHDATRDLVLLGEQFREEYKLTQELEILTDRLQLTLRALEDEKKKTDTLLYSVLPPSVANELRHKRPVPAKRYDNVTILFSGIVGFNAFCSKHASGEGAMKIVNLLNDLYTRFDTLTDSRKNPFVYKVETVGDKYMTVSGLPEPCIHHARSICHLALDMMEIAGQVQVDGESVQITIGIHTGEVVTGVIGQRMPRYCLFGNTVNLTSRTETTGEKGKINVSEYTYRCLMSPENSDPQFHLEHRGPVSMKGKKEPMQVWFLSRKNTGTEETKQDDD
Assay: Cell-based sGC Functional Assay (CASA Assay)
Conditions: for Emax: CHO-K1, activation as percentage of maximum cGMP production of Compound A (set to 100%), read-out: % Act.; for EC50: inflection point of cGMP generation in CHO-K1/sGC cells, 4P fit, 1 hr at 37° C., read-out: IP
Excerpt: sGC is a heme-containing enzyme that converts GTP to secondary messenger cGMP. Increases in cGMP levels affect several physiological processes including vasorelaxation through multiple downstream pathways. […] Heme-dependent activators (HDAs) preferentially activate sGC containing a ferrous heme group. To determine the effect of sGC activators on enzyme activity, the CASA assay was developed to monitor the generation of cGMP in a cell line that stably expresses the heterodimeric sGC protein.
A CHO-K1 cell line stably expressing the sGC α1/β1 heterodimer was generated using a standard transfection protocol. CHO-K1 cells were transfected with plasmids pIREShyghsGCα1 and pIRESneo-hsGCβ1 simultaneously using FUGENE reagent. Clones that stably express both subunits were selected with hygromycin and neomycin for ˜2 weeks. Clone #7 was chosen for the assay and was designated CHO-K1/sGC. CHO-K1/sGC cells were maintained in F-K12 medium containing 10% heat-inactivated Fetal Bovine Serum (FBS), 100 μg/mL penicillin/streptomycin, 0.5 mg/mL hygromycin and 0.25 mg/mL G418. The cells were then cryopreserved in LN2. On the day of the assay, cells thawed and resuspended in EBSS Assay Buffer (EAB, Sigma, E3024) supplemented with 5 mM MgCl2, 10 mM HEPES (4-(2-hydroxyethyl)piperazine-1-ethanesulfonic acid) and 0.05% BSA (bovine serum albumin) and cell density was then adjusted to 4×10^5/mL with EAB. IBMX (3-isobutyl-1-methylxanthin, 0.5 mM) was added to inhibit degradation of cGMP. Compounds were diluted from DMSO stock solutions and added to the assay at a final DMSO concentration of 2.5%. Cells were incubated with compounds in the presence and absence of 1 μM of Diethylenetriamine/nitric oxide adduct (DETA-NO; Sigma, 17018) for 1 hr at 37° C. At the end of the incubation period, the reaction was terminated and the cells were lysed with the detection reagents from Cisbio Kits. The level of intracellular cGMP was determined using an HTRF-based assay kit (CisBio, 62GM2PEC), which detects the displacement of a fluorescence labeled cGMP from its specific antibody. The cGMP produced by test compounds was directly compared to the maximum cGMP production (this value was set to equal 100% activation.) of the published sGC-HDA Compound A:
(Example 1 in WO 2010/065275, published Jun. 10, 2010). The test compounds' activity were then expressed as a percentage of Compound A, the standard in every experiment. This percent activation was calculated either in the presence or absence of DETA-NO which was then plotted. IP and maximum fold induction was derived using ADA analysis software for 4P fit.

Emax	EC50	SMILES
120%	0.078 µM	Cn1ncc2c(-c3nc(N)c4c(n3)NC(=O)C4(C)c3cn(C4CCC4)nn3)nc(CCC(F)(F)C(F)(F)F)nc21 (single isomer, unassigned) [Example 74, 4-Amino-5-(1-cyclobutyl-1H-1,2,3-triazol-4-yl)-5-methyl-2-(1-methyl-6-(3,3,4,4,4-pentafluorobutyl)-1H-pyrazolo[3,4-d]pyrimidin-4-yl)-5,7-dihydro-6H-pyrrolo[2,3-d]pyrimidin-6-one]
139%	0.175 µM	C=CCn1cc(C2(C)C(=O)Nc3nc(-c4nc(CCC(F)(F)C(F)(F)F)nc5c4cnn5C)nc(N)c32)nn1 (single isomer, unassigned) [Example 75, 5-(1-allyl-1H-1,2,3-triazol-4-yl)-4-amino-5-methyl-2-(1-methyl-6-(3,3,4,4,4-pentafluorobutyl)-1H-pyrazolo[3,4-d]pyrimidin-4-yl)-5,7-dihydro-6H-pyrrolo[2,3-d]pyrimidin-6-one]
148%	0.168 µM	[2H]C([2H])([2H])n1cc(C2(C)C(=O)Nc3nc(-c4nc(CCC(F)(F)C(F)(F)F)nc5c4cnn5C([2H])([2H])[2H])nc(N)c32)nn1 (single isomer, unassigned) [Example 76, 4-Amino-5-methyl-5-(1-(methyl-d3)-1H-1,2,3-triazol-4-yl)-2-(1-(methyl-d3)-6-(3,3,4,4,4-pentafluorobutyl)-1H-pyrazolo[3,4-d]pyrimidin-4-yl)-5,7-dihydro-6H-pyrrolo[2,3-d]pyrimidin-6-one]
157%	0.168 µM	[2H]C([2H])([2H])n1cc(C2(C)C(=O)Nc3nc(-c4nc(CCC(F)(F)C(F)(F)F)nc5c4cnn5C)nc(N)c32)nn1 (single isomer, unassigned) [Example 77, 4-Amino-5-methyl-2-(1-methyl-6-(3,3,4,4,4-pentafluorobutyl)-1H-pyrazolo[3,4-d]pyrimidin-4-yl)-5-(1-(methyl-d3)-1H-1,2,3-triazol-4-yl)-5,7-dihydro-6H-pyrrolo[2,3-d]pyrimidin-6-one]
135%	0.072 µM	[2H]C([2H])([2H])n1ncc2c(-c3nc(N)c4c(n3)NC(=O)C4(C)c3ccc(F)cn3)nc(CCC(F)(F)C(F)(F)F)nc21 (stereo not shown) [Example 2, 4-Amino-5-(5-fluoropyridin-2-yl)-5-methyl-2-(1-(methyl-d3)-6-(3,3,4,4,4-pentafluorobutyl)-1H-pyrazolo[3,4-d]pyrimidin-4-yl)-5H-pyrrolo[2,3-d]pyrimidin-6(7H)-one]
88%	0.01 µM	Cc1noc(C2(C)C(=O)Nc3nc(-c4nc(Cc5cccc(F)c5F)nc5c4cnn5C)nc(N)c32)n1 (stereo not shown) [Example 5, 4-Amino-2-(6-(2,3-difluorobenzyl)-1-methyl-1H-pyrazolo[3,4-d]pyrimidin-4-yl)-5-methyl-5-(3-methyl-1,2,4-oxadiazol-5-yl)-5,7-dihydro-6H-pyrrolo[2,3-d]pyrimidin-6-one]
137%	0.604 µM	CC(CC(F)(F)F)c1nc(-c2nc(N)c3c(n2)NC(=O)C3(C)c2ccc(F)cn2)c2cnn(C)c2n1 (stereo not shown) [Example 6, 4-Amino-5-(5-fluoropyridin-2-yl)-5-methyl-2-(1-methyl-6-(4,4,4-trifluorobutan-2-yl)-1H-pyrazolo[3,4-d]pyrimidin-4-yl)-5,7-dihydro-6H-pyrrolo[2,3-d]pyrimidin-6-one]
147%	0.212 µM	[2H]C([2H])([2H])n1ncc2c(-c3nc(N)c4c(n3)NC(=O)C4(C)c3ccccn3)nc(CCC(F)(F)C(F)(F)F)nc21 (stereo not shown) [Example 7, 4-Amino-5-methyl-2-(1-(methyl-d3)-6-(3,3,4,4,4-pentafluorobutyl)-1H-pyrazolo[3,4-d]pyrimidin-4-yl)-5-(pyridin-2-yl)-5,7-dihydro-6H-pyrrolo[2,3-d]pyrimidin-6-one]
126%	0.049 µM	[2H]C([2H])([2H])n1ncc2c(-c3nc(N)c4c(n3)NC(=O)C4(C)c3nc(C4CC4)no3)nc(CCC(F)(F)C(F)(F)F)nc21 (stereo not shown) [Example 8, 4-Amino-5-(3-cyclopropyl-1,2,4-oxadiazol-5-yl)-5-methyl-2-(1-(methyl-d3)-6-(3,3,4,4,4-pentafluorobutyl)-1H-pyrazolo[3,4-d]pyrimidin-4-yl)-5,7-dihydro-6H-pyrrolo[2,3-d]pyrimidin-6-one]
121%	0.116 µM	[2H]C([2H])([2H])n1ncc2c(-c3nc(N)c4c(n3)NC(=O)C4(C)c3ncccn3)nc(CCC(F)(F)C(F)(F)F)nc21 (stereo not shown) [Example 9, 4-Amino-5-methyl-2-(1-(methyl-d3)-6-(3,3,4,4,4-pentafluorobutyl)-1H-pyrazolo[3,4-d]pyrimidin-4-yl)-5-(pyrimidin-2-yl)-5,7-dihydro-6H-pyrrolo[2,3-d]pyrimidin-6-one]
114%	0.665 µM	[2H]C([2H])([2H])n1ncc2c(-c3nc(N)c4c(n3)NC(=O)C4(C)c3ccc(C(F)(F)F)nc3)nc(CCC(F)(F)C(F)(F)F)nc21 (stereo not shown) [Example 10, 4-Amino-5-methyl-2-(1-(methyl-d3)-6-(3,3,4,4,4-pentafluorobutyl)-1H-pyrazolo[3,4-d]pyrimidin-4-yl)-5-(6-(trifluoromethyl)pyridin-3-yl)-5,7-dihydro-6H-pyrrolo[2,3-d]pyrimidin-6-one]
126%	0.626 µM	[2H]C([2H])([2H])n1ncc2c(-c3nc(N)c4c(n3)NC(=O)C4(C)c3coc(C)n3)nc(CCC(F)(F)C(F)(F)F)nc21 (stereo not shown) [Example 11, 4-Amino-5-methyl-2-(1-(methyl-d3)-6-(3,3,4,4,4-pentafluorobutyl)-1H-pyrazolo[3,4-d]pyrimidin-4-yl)-5-(2-methyloxazol-4-yl)-5,7-dihydro-6H-pyrrolo[2,3-d]pyrimidin-6-one]
104%		[2H]C([2H])([2H])n1ncc2c(-c3nc(N)c4c(n3)NC(=O)C4(C)c3ccc(OC)cn3)nc(CCC(F)(F)C(F)(F)F)nc21 (stereo not shown) [Example 12, 4-Amino-5-(5-methoxypyridin-2-yl)-5-methyl-2-(1-(methyl-d3)-6-(3,3,4,4,4-pentafluorobutyl)-1H-pyrazolo[3,4-d]pyrimidin-4-yl)-5,7-dihydro-6H-pyrrolo[2,3-d]pyrimidin-6-one]
